Assay results reported in patent US10479814B2, “Adenosine receptor activation reagent and the uses of thereof” (Zhejiang Subtropical Crops Research Institute, priority 2014, dated 2019).

What was measured:
Format in all cases: in vivo
[1] = tested on: myeloperoxidase (MPO) activity in mouse renal cortex; experiment: kidney ischemia reperfusion: MPO analysis; conditions: vs IR group, P<0.05; HEA 5 and 7.5 mg/kg; DPCPX 1 mg/kg; DPCPX 1 mg/kg+HEA 5 mg/kg
Description: Male C57BL/6 mice 20-25 g, after one week of adaptive feeding to the animals, were randomly divided into eight groups: sham-operation group, IR group, HEA 5 mg/kg group, HEA 7 mg/kg group, HEA 10 mg/kg group, DPCPX (1 mg/kg) group, DPCPX (1 mg/kg)+HEA (5 mg/kg) group and DPCPX (1 mg/kg)+HEA (7.5 mg/kg) group. The mouse was weighed before operation, then peritoneally injected with pentobarbital sodium 50 mg/kg to anaesthetize the mouse, abdomen was opened by ventromedial incision, blunt dissection and the kidney pedicle was sufficiently exposed, renal ischemia was induced by clapping two side kidney pedicle with non-invasive bulldog clamp, the color of kidney change from bright red to purple black immediately, determination method of success of the experiment model can refer to the methods in literature 7 and 8. At time of 30 min of ischemia the bulldog clamp was loosened, the perfuse was restored, the color of kidney changed gradually from dark red to bright red, showing re perfusion was successful. The wound was stitched. The animals were freely fed water and food. In the sham-operation group, the mice only received operation of abdomen open, kidney pedicle and abdomen suture. […] 9.2.6 Real time quantitative PCR analysis of gene expression of ICAM-1, TNF-α and IL-1β; the sequence of primer used in RT-PCR reaction system is as follow: […]

[2] = tested on: mouse kidney ischemia reperfusion; experiment: kidney ischemia reperfusion: electron microscope observation of renal tubular epithelial cells
Description: Male C57BL/6 mice 20-25 g, after one week of adaptive feeding to the animals, were randomly divided into eight groups: sham-operation group, IR group, HEA 5 mg/kg group, HEA 7 mg/kg group, HEA 10 mg/kg group, DPCPX (1 mg/kg) group, DPCPX (1 mg/kg)+HEA (5 mg/kg) group and DPCPX (1 mg/kg)+HEA (7.5 mg/kg) group. The mouse was weighed before operation, then peritoneally injected with pentobarbital sodium 50 mg/kg to anaesthetize the mouse, abdomen was opened by ventromedial incision, blunt dissection and the kidney pedicle was sufficiently exposed, renal ischemia was induced by clapping two side kidney pedicle with non-invasive bulldog clamp, the color of kidney change from bright red to purple black immediately, determination method of success of the experiment model can refer to the methods in literature 7 and 8. At time of 30 min of ischemia the bulldog clamp was loosened, the perfuse was restored, the color of kidney changed gradually from dark red to bright red, showing re perfusion was successful. The wound was stitched. The animals were freely fed water and food. In the sham-operation group, the mice only received operation of abdomen open, kidney pedicle and abdomen suture. The kidney IR mode were made for the mice in the remaining groups. In each drug group, before 15 minute of ischemia, the drug with corresponding concentration was speritoneally injected, in drug combination group, 15 minutes before ischemia, the drugs were given simultaneously. The section was observed using Transmission Electron Microscope ([…], from Hitachi Co. limited). The observation was conducted in Electron Microscoper Room of Wenzhou Medical University.

[3] = tested on: TNF-α mRNA in mouse renal cortex; experiment: kidney ischemia reperfusion: real time quantitative PCR of TNF-α; conditions: vs IR group; HEA 5, 7.5, 10 mg/kg; DPCPX 1 mg/kg; DPCPX 1 mg/kg+HEA
Description: Male C57BL/6 mice 20-25 g, after one week of adaptive feeding to the animals, were randomly divided into eight groups: sham-operation group, IR group, HEA 5 mg/kg group, HEA 7 mg/kg group, HEA 10 mg/kg group, DPCPX (1 mg/kg) group, DPCPX (1 mg/kg)+HEA (5 mg/kg) group and DPCPX (1 mg/kg)+HEA (7.5 mg/kg) group. […]
The MPO analysis was conducted according to the specification in the kit. 9.2.6 Real time quantitative PCR analysis of gene expression of ICAM-1, TNF-α and IL-1β; the sequence of primer used in RT-PCR reaction system is as follow:
PCR amplification reaction system: IQ SYBR Green Super mix 12.5 μL, Forward primer (10 μmo/L) 1 μL, Reverse primer (10 μmol/L) 1 μL, cDNA (water was added to dilute to same level) 10.5 μL. […] The statistics and calculation of experiment results was automatically conducted fluorescence quantitative PCR analyzing software BIO-RAD CFX Manager. Target gene mRNA expression level was calculated by 2-ΔΔCt method, and standardized using the GAPDH mRNA in corresponding specimen a standard.

Structure (SMILES): CCCn1c(=O)c2[nH]c(C3CCCC3)nc2n(CCC)c1=O [DPCPX, reference compound]
- myeloperoxidase (MPO) activity in renal cortex [1]: significantly increase MPO activity
- renal tubular epithelial cell ultrastructure (electron microscope) ([2]; DPCPX 1 mg/kg alone or DPCPX 1 mg/kg+HEA 5 or 7.5 mg/kg before ischemia): essentially no mitochondria with complete structure
- TNF-α mRNA expression in renal cortex [3]: significantly increase

Structure (SMILES): OCCNc1ncnc2c1ncn2[C@@H]1O[C@H](CO)[C@@H](O)[C@H]1O [HEA, N(6)-(2-hydroxyethyl)-adenosine]
- myeloperoxidase (MPO) activity in renal cortex [1]: significantly reduced
- renal tubular epithelial cell ultrastructure (electron microscope) ([2]; HEA 5 mg/kg group): the entirety is improved compared with ischemia reperfusion group
- renal tubular epithelial cell ultrastructure (electron microscope) ([2]; HEA 7.5 mg/kg group): most of the mitochondria are normal
- renal tubular epithelial cell ultrastructure (electron microscope) ([2]; HEA 10 mg/kg group): mitochondria protection is more clear than the IR group
- TNF-α mRNA expression in renal cortex [3]: significantly reduce the high expression
